Source: the NIST ThermoML archive (doi:10.1016/j.jct.2016.08.005)

Conditions: Liquid, Vibrating tube method

Cc1ccsc1 [3-methylthiophene]
mass density [kg/m3]
Conditions	313.15 K	318.15 K	323.15 K	328.15 K	333.15 K	338.15 K
100 kPa	1000.05	994.7	989.3	983.88	978.47	972.98
2000 kPa	1001.76	996.44	991.1	985.74	980.39	974.96
5000 kPa	1004.39	999.15	993.9	988.63	983.35	978.01
7000 kPa	1006.11	1000.93	995.72	990.51	985.3	980.02
10000 kPa	1008.64	1003.52	998.41	993.26	988.13	982.95
15000 kPa	1012.71	1007.7	1002.71	997.7	992.67	987.63
20000 kPa	1016.63	1011.74	1006.85	1001.93	997.03	992.12
25000 kPa	1020.43	1015.6	1010.83	1006	1001.22	996.41
30000 kPa	1024.08	1019.35	1014.66	1009.94	1005.22	1000.53
35000 kPa	1027.61	1022.99	1018.35	1013.73	1009.12	1004.49
40000 kPa	1031.05	1026.48	1021.93	1017.38	1012.87	1008.33
45000 kPa	1034.35	1029.86	1025.4	1020.94	1016.49	1012.04
50000 kPa	1037.58	1033.15	1028.76	1024.36	1020	1015.62
55000 kPa	1040.71	1036.33	1032.03	1027.68	1023.38	1019.08
60000 kPa	1043.73	1039.44	1035.18	1030.89	1026.67	1022.44
65000 kPa	1046.69	1042.45	1038.24	1034.03	1029.88	1025.7
